Measured values published in US20260284042A1, “DOSING REGIMEN” (ViiV Healthcare UK (No.3) Limited, priority 2024, published 2026).
Where two headings read alike, the source gives them in different places.

Key:
[1] = Cabotegravir population pharmacokinetic (PopPK) model, CAB 200 mg/mL IM injections; design: species or system human
Protocol: In a first set of simulations, a cabotegravir population pharmacokinetic (PopPK) model was built based on PK data following cabotegravir (CAB) 200 mg/mL intramuscular (IM) injections collected in 16 historical studies (Population pharmacokinetics of cabotegravir following administration of oral tablet and long-acting intramuscular injection in adult HIV-1-infected and uninfected subjects. Han K, Baker M, Lovern M, Paul P, Xiong Y, Patel P, Moore K P, Seal C S, Cutrell A G, D'Amico R D, Benn P D, Landovitz R J, Marzinke M A, Spreen W R, Ford S L. Br J Clin Pharmacol. 2022 October;88 (10): 4607-4622. doi: 10.1111/bcp. 15439. Epub 2022 Jul. 4. PMID: 35695476) and updated based on PK data from 19 studies: LAI116585, LAI117010, LAI117011, LAI117020, 201741, 201479, 201480, 205696, LAI116482 (LATTE), LAI115428, LAI116815, 200056 (LATTE-2), 201120 (ECLAIR), 201103 (HPTN077), 201584 (FLAIR), 201585 (ATLAS), 207966 (ATLAS-2M), 201738 (HPTN 083) and 201739 (HPTN 084). A total of 34,850 CAB plasma concentrations collected at various time points from 2,694 participants were used to build this PopPK model.

HIV-1 strains = conditions: integrase strand transfer inhibitor; antiviral activity against a broad range of HIV-1 strains; cited from earlier work
[2] = cited from earlier work

C[C@H]1CO[C@@H]2Cn3cc(C(=O)NCc4ccc(F)cc4F)c(=O)c(O)c3C(=O)N12 [Cabotegravir, (3S, 11aR)-N-((2,4-difluorophenyl)methyl)-6-hydroxy-3-methyl-5,7-dioxo-2,3,5,7,11,11a-hexahydro (1,3) oxazolo (3,2-a)pyrido (1,2-d) pyrazine-8-carboxamide]
Apparent central clearance (CL/F), higher in current smokers [1]: 16.4%
KA2 versus BMI [1]: decreased with increasing BMI
KA2 versus needle length [1]: lower with longer needle length
Long-acting intramuscular gluteal absorption rate constant (KA2), lower in people assigned female at birth than male at birth ([1]; CAB 200 mg/mL IM injections): 46.5%
KA2, higher in study 201120 (ECLAIR) than other studies ([1]; after adjusting for all covariates): 22.8%
KA2 versus split injections ([1]; people assigned female at birth): not associated with split injections
KA2, higher if the injection was split ([1]; people assigned male at birth): 50.8%
potency (HIV-1 strains): subnanomolar
10th percentile of Ctau observed ([2]; Phase 3 study 201738 (HPTN 083), people assigned male at birth): 1.05 µg/mL
10th percentile of Ctau observed ([2]; Phase 3 study 201739 (HPTN 084), people assigned female at birth): 1.39 µg/mL
